In patent publication US10618903B2, “Heteroaryl substituted aminopyridine compounds” (BRISTOL-MYERS SQUIBB COMPANY, priority 2015, dated 2020):
pEC50, pIC50: −log10 of the molar value.

Assays:
[1] = tested on: Caco-2 cells; assay: Caco Permeability Assay; type: in vitro ADME; details: Caco-2 cells, 3 μM compound
[2] = tested on: IL-6 levels in human whole blood stimulated with a TLR2 agonist; assay: IRAK4 Whole Blood Assay (lipoteichoic acid/TLR2-stimulated IL-6); type: cell-based; details: lipoteichoic acid 10 μg/mL, IL-6 readout
In short: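 IL-6 was quantified by cytometric bead assay in supernatants of human blood (ACD-A) stimulated for 5 h with lipoteichoic acid at 10 μg/mL final. Compound exposure preceded stimulation for 60 min at 37 °C, 5% CO2.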

[3] = target: IRAK4 (Homo sapiens (Human), UniProt Q9NWZ3); assay: IRAK4 Inhibition Assay; type: biochemical; details: ATP 500 μM; IRAK4 0.6 nM
In short: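 Readout: electrophoretic (LabChip) separation of fluorescent peptide substrate from phosphorylated product after EDTA quench. Reactions ran 60 min at room temperature with 0.6 nM IRAK4, 1.5 μM peptide and 500 μM ATP; inhibition referenced to no-enzyme (100%) and vehicle (0%) controls.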

[4] = Caco Permeability Assay; type: in vitro ADME; details: human, Caco-2, Caco-2 cells, 3 μM compound

IRAK4, sequence (Q9NWZ3 whole entry): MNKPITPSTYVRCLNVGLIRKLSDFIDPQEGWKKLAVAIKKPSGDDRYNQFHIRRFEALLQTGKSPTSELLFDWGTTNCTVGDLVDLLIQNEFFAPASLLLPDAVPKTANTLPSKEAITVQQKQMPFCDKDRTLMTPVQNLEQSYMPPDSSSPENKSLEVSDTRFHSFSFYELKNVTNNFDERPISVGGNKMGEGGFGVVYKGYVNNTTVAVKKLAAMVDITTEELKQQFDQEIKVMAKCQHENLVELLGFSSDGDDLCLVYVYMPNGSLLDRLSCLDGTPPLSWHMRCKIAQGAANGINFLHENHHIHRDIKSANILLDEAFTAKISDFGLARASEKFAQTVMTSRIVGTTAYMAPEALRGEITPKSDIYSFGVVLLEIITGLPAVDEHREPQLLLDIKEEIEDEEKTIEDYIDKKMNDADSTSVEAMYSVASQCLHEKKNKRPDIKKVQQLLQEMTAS

| SMILES | Caco-2 Permeability [1] [×10⁻⁶ cm/s] | pEC50 [2] | pIC50 [3] | pEC50 ([2]; Homo sapiens) | Papp at 2 h, 3 µM [4] [×10⁻⁶ cm/s] |
| --- | --- | --- | --- | --- | --- |
| CC(C)(O)[C@H](F)CNC(=O)c1cnc(-c2cnn3cc(Cl)cnc23)cc1NCCC(F)(F)F [Example 46, (R)-6-(6-chloropyrazolo[1,5-a]pyrimidin-3-yl)-N-(2-fluoro-3-hydroxy-3-methylbutyl)-4-((3,3,3-trifluoropropyl)amino) nicotinamide] | 24.1 | 5.71 | 8.30 |  |  |
| CCCNc1cc(-c2cnn3cc(Cl)cnc23)ncc1C(=O)NC[C@@H](F)C(C)(C)O [Example 66, (R)-6-(6-chloropyrazolo[1,5-a]pyrimidin-3-yl)-N-(2-fluoro-3-hydroxy-3-methylbutyl)-4-(propylamino)nicotinamide] | 21.2 |  | 8.52 |  |  |
| CC(C)(O)[C@H](F)CNC(=O)c1cnc(-c2cnn3cc(Cl)cnc23)cc1NC1CCC(F)C1 (stereo partly drawn) [Example 84, 6-(6-chloropyrazolo[1,5-a]pyrimidin-3-yl)-N—((R)-2-fluoro-3-hydroxy-3-methylbutyl)-4-((3-fluorocyclopentyl)amino)nicotinamide] | 12 | 6.49 | 8.70 |  |  |
| CCCNc1cc(-c2cnn3cc(Cl)cnc23)ncc1C(=O)NC[C@@H](F)C(C)(C)O [Example 159, (R)-6-(6-chloropyrazolo[1,5-a]pyrimidin-3-yl)-N-(2-fluoro-3-hydroxy-3-methylbutyl)-4-(propylamino)nicotinamide] | 9.5 |  |  | 6.00 |  |
| CC1(Nc2cc(-c3cnc4cc(Cl)cnn34)ncc2C(=O)NC[C@H](F)C(C)(C)O)CC1 [Example 207, (S)-6-(7-chloroimidazo[1,2-b]pyridazin-3-yl)-N-(2-fluoro-3-hydroxy-3-methylbutyl)-4-((1-methylcyclopropyl)amino)nicotinamide] | 9.7 | 6.59 |  |  |  |
| CC(C)(O)[C@H](F)CNC(=O)c1cnc(-c2cnn3cc(C#N)cnc23)cc1Nc1cnn(CC(F)(F)F)c1 [Example 241, (R)-6-(6-cyanopyrazolo[1,5-a]pyrimidin-3-yl)-N-(2-fluoro-3-hydroxy-3-methylbutyl)-4-((1-(2,2,2-trifluoroethyl)-1H-pyrazol-4-yl)amino)nicotinamide] | <1.5 | 6.89 | 8.70 |  |  |
| CC(C)(F)Cn1cc(Nc2cc(-c3cnc4cc(C#N)cnn34)ncc2C(=O)NC[C@@H](F)C(C)(C)O)cn1 [Example 279, (R)-6-(7-cyanoimidazo[1,2-b]pyridazin-3-yl)-4-((1-(2-fluoro-2-methylpropyl)-1H-pyrazol-4-yl)amino)-N-(2-fluoro-3-hydroxy-3-methylbutyl)nicotinamide] |  |  | 9.00 | 6.11 | < 1.5 |
| CC(C)(O)[C@H](F)CNC(=O)c1cnc(-c2cnc3cc(C#N)cnn23)cc1Nc1cc2n(n1)CCN(CC(F)F)C2 [Example 280, (R)-6-(7-cyanoimidazo[1,2-b]pyridazin-3-yl)-4-((5-(2,2-difluoroethyl)-4,5,6,7-tetrahydropyrazolo[1,5-a]pyrazin-2-yl)amino)-N-(2-fluoro-3-hydroxy-3-methylbutyl)nicotinamide] |  |  | 8.22 | 6.48 | < 1.5 |
| CC(C)(O)[C@H](F)CNC(=O)c1cnc(-c2cnc3cc(C#N)cnn23)cc1Nc1cnn(CCCF)c1 [Example 281, (R)-6-(7-cyanoimidazo[1,2-b]pyridazin-3-yl)-N-(2-fluoro-3-hydroxy-3-methylbutyl)-4-((1-(3-fluoropropyl)-1H-pyrazol-4-yl)amino)nicotinamide] |  |  | 8.70 | 6.54 | < 1.5 |

Other lines, results leading:

| Caco-2 Permeability [1] [×10⁻⁶ cm/s] | pEC50 [2] | pIC50 [3] | pEC50 ([2]; Homo sapiens) | Papp at 2 h, 3 µM [4] [×10⁻⁶ cm/s] | SMILES |
| --- | --- | --- | --- | --- | --- |
|  |  | 9.00 | 6.44 | < 1.5 | CCCn1cc(Nc2cc(-c3cnc4cc(C#N)cnn34)ncc2C(=O)NC[C@@H](F)C(C)(C)O)cn1 [Example 278, (R)-6-(7-cyanoimidazo[1,2-b]pyridazin-3-yl)-N-(2-fluoro-3-hydroxy-3-methylbutyl)-4-((1-propyl-1H-pyrazol-4-yl)amino)nicotinamide] |
|  |  | 8.70 | 6.68 | < 1.5 | CC(C)(O)[C@H](F)CNC(=O)c1cnc(-c2cnc3cc(C#N)cnn23)cc1Nc1cnn(C2CC2)c1 [Example 284, (R)-6-(7-cyanoimidazo[1,2-b]pyridazin-3-yl)-4-((1-cyclopropyl-1H-pyrazol-4-yl)amino)-N-(2-fluoro-3-hydroxy-3-methylbutyl)nicotinamide] |
|  |  | 8.70 | 6.74 | 5.5 | CC(C)(O)[C@H]1CC[C@H](NC(=O)c2cnc(-c3cnc4cc(C#N)cnn34)cc2Nc2cnn(C3CC3)c2)CC1 [Example 286, 6-(7-cyanoimidazo[1,2-b]pyridazin-3-yl)-4-((1-cyclopropyl-1H-pyrazol-4-yl)amino)-N-((1r,4r)-4-(2-hydroxypropan-2-yl)cyclohexyl) nicotinamide] |
|  |  | 8.05 | 6.35 | 1.8 | CC(C)n1cc(Nc2cc(-c3cnc4cc(C#N)cnn34)ncc2C(=O)NCCC(C)(C)O)cn1 [Example 287, 6-(7-cyanoimidazo[1,2-b]pyridazin-3-yl)-N-(3-hydroxy-3-methylbutyl)-4-((1-isopropyl-1H-pyrazol-4-yl)amino)nicotinamide] |
